In patent US20260159512A1, “BCAT2 INHIBITORS” (AGIOS PHARMACEUTICALS, INC., priority 2021, published 2026):

Columns and labels:
Conditions in all cases: average where tested multiple times
BCAT2 [1] = biological target: T1, BCAT2 (Homo sapiens, UniProt O15382); experiment: BCAT2 in vitro enzyme inhibition assay (resazurin/diaphorase-coupled fluorescence); assay type: biochemical
T1 sequence (O15382 28-392): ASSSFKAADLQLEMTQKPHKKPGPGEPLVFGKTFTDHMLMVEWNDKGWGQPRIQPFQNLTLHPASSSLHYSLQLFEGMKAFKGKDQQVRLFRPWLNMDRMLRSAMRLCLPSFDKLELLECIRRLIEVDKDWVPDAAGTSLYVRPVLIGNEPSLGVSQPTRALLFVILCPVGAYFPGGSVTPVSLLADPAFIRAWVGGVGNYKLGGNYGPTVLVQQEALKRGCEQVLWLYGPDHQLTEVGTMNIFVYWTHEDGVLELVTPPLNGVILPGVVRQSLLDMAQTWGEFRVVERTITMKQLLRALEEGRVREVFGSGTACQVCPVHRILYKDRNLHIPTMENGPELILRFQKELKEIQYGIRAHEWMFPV
Outline: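 Coupled fluorescence readout: glutamate formed from L-leucine/α-ketoglutarate transamination drives GDH/NAD/diaphorase reduction of resazurin (Ex 540/Em 590). Human BCAT2 was first exposed 1 h at room temperature to compound, top final 100 μM in 3-fold, 10-point series; substrate reaction ran 1 h before SDS quench, in technical duplicate with DMSO max and enzyme-free min controls.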

hBCAT1 = biological target: T2, hBCAT1 (Homo sapiens, UniProt P54687); experiment: BCAT1 in vitro enzyme inhibition assay (resazurin/diaphorase-coupled fluorescence); assay type: biochemical
T2 sequence (P54687 1-386): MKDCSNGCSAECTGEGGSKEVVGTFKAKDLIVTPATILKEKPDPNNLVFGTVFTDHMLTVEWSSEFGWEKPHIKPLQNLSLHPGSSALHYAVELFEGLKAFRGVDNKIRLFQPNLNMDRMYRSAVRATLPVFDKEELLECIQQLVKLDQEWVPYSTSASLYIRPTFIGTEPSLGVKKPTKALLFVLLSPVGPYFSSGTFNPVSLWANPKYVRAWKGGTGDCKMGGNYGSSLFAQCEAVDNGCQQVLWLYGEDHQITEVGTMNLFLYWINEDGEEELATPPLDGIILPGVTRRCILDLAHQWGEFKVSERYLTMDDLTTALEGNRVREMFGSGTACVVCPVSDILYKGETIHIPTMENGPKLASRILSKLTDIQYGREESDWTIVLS
Outline: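 Ten-point, 3-fold compound series (top final 100 μM, delivered 1:50 from 50× DMSO stocks) tested against hBCAT1. Inhibition detected via diaphorase-coupled resazurin fluorescence, duplicate wells, with values from repeated runs averaged.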

BCAT2 [2] = biological target: T1, BCAT2; experiment: BCAT2 in vitro cell inhibition using engineered A549 cells (KMV cell assay, 13C6-KMV by LC-MS/MS); assay type: cell-based; set-up: The result was an engineered A549 cell line that expressed endogenous BCAT2; endogenous in cells; host or cells: A549 cells with MUT and BCAT1 knocked out by CRISPR/CAS9; key to BCAT2 Cell Inhibition: A: less than or equal to 0.100 μM; B: greater than 0.100 and less than or equal to 0.500 μM; C: greater than 0.500 and less than or equal to 1.000 μM; d: greater than 1.000 μM; E: no fit

IC50 (BCAT2 [1]) [nM]	IC50 (hBCAT1) [nM]	IC50 (BCAT2 [2]) [nM]	BCAT2 Cell Inhibition (BCAT2 [2])	Compound
≤ 100	< 500	≤ 100		O=C(N[C@H]1CCC[C@@H](n2c(-c3ncccc3F)nc3cnc(-c4nc[nH]n4)cc32)C1)c1ncc(Cl)s1 [Example 175, 5-chloro-N-((1S,3R)-3-(2-(3-fluoropyridin-2-yl)-6-(1H-1,2,4-triazol-3-yl)-1H-imidazo[4,5-c]pyridin-1-yl)cyclohexyl)thiazole-2-carboxamide]
> 1000	> 5000		E	CC(C)Cc1nc2cnc(-c3nc[nH]n3)cc2n1[C@@H]1C[C@H](NC(=O)c2ncc(Cl)s2)CN(C)C1 (single isomer, unassigned) [Example 135]
≤ 100	1000 to 5000	> 1000		CNc1nccc(-c2cc3c(cn2)nc(CC(C)C)n3[C@@H]2CCC[C@H](NC(=O)c3ncc(Cl)s3)C2)n1 [Example 316, 5-chloro-N-((1S,3R)-3-(2-isobutyl-6-(2-(methylamino)pyrimidin-4-yl)-1H-imidazo[4,5-c]pyridin-1-yl)cyclohexyl)thiazole-2-carboxamide]
≤ 100	500 to 1000	100 to 500		CO[C@H]1C[C@H](NC(=O)c2ncc(Cl)s2)C[C@H](n2c(CC(C)C)nc3cnc(-c4nc(C)co4)cc32)C1 [Example 409, 5-chloro-N-((1R,3S,5S)-3-(2-isobutyl-6-(4-methyloxazol-2-yl)-1H-imidazo[4,5-c]pyridin-1-yl)-5-methoxycyclohexyl)thiazole-2-carboxamide]
> 1000	1000 to 5000		E	CC(C)Cc1nc2cnc(-c3ncccn3)cc2n1[C@@H]1C[C@@H](O)C[C@H](NC(=O)c2ncc(Cl)s2)C1 (stereo in doubt) [Example 397, 5-chloro-N-((1R,3S,5S)-3-hydroxy-5-(2-isobutyl-6-(pyrimidin-2-yl)-1H-imidazo[4,5-c]pyridin-1-yl)cyclohexyl)thiazole-2-carboxamide]
≤ 100	< 500	≤ 100		CC(C)(C)Cc1nc2cnc(-c3ccccn3)cc2n1[C@@H]1CCC[C@H](NC(=O)c2ncc(Cl)s2)[C@H]1O [Example 389, 5-chloro-N-((1S,2R,3R)-2-hydroxy-3-(2-neopentyl-6-(pyridin-2-yl)-1H-imidazo[4,5-c]pyridin-1-yl)cyclohexyl)thiazole-2-carboxamide]
≤ 100	< 500	≤ 100		O=C(N[C@H]1CCC[C@@H](n2c(-c3c(O)cccc3F)nc3cnc(-c4nc[nH]n4)cc32)C1)c1ccc(Cl)s1 [Example 338, 5-chloro-N-((1S,3R)-3-(2-(2-fluoro-6-hydroxyphenyl)-6-(1H-1,2,4-triazol-3-yl)-1H-imidazo[4,5-c]pyridin-1-yl)cyclohexyl)thiophene-2-carboxamide]

The remaining lines, values behind:

Compound	IC50 (BCAT2 [1]) [nM]	IC50 (hBCAT1) [nM]	IC50 (BCAT2 [2]) [nM]	BCAT2 Cell Inhibition (BCAT2 [2])
Cc1nc(-c2cc3c(cn2)nc(CC(C)C)n3[C@@H]2CCC[C@H](NC(=O)c3ncc(Cl)s3)C2)cs1 [Example 158, 5-chloro-N-((1S,3R)-3-(2-isobutyl-6-(2-methylthiazol-4-yl)-1H-imidazo[4,5-c]pyridin-1-yl)cyclohexyl)thiazole-2-carboxamide]	≤ 100	1000 to 5000	> 1000	
O=C(N[C@H]1CCC[C@@H](n2c(-c3ncccc3F)nc3cnc(-n4ccnn4)nc32)C1)c1ncc(C(F)F)s1 [Example 59, 5-(difluoromethyl)-N-((1S,3R)-3-(8-(3-fluoropyridin-2-yl)-2-(1H-1,2,3-triazol-1-yl)-9H-purin-9-yl)cyclohexyl)thiazole-2-carboxamide]	100 to 500	> 5000	> 1000	
CC(C)Cc1nc2cnc(-n3nccn3)cc2n1[C@@H]1CCC[C@H](NC(=O)c2ncc(Cl)s2)C1 [Example 84, 5-chloro-N-((1S,3R)-3-(2-isobutyl-6-(2H-1,2,3-triazol-2-yl)-1H-imidazo[4,5-c]pyridin-1-yl)cyclohexyl)thiazole-2-carboxamide]	≤ 100	< 500	≤ 100	
O=C(N[C@H]1CCC[C@@H](n2c(-c3ccccc3F)nc3cnc(-c4ncco4)cc32)[C@@H]1O)c1ncc(Cl)s1 [Example 248, 5-chloro-N-((1S,2R,3R)-3-(2-(2-fluorophenyl)-6-(oxazol-2-yl)-1H-imidazo[4,5-c]pyridin-1-yl)-2-hydroxycyclohexyl)thiazole-2-carboxamide]	≤ 100	< 500	≤ 100	
O=C(N[C@H]1CCC[C@@H](n2c(-c3ccccn3)nc3cnc(-n4ccnn4)cc32)C1)c1ncc(C(F)F)s1 [Example 34, 5-(difluoromethyl)-N-((1S,3R)-3-(2-(pyridin-2-yl)-6-(1H-1,2,3-triazol-1-yl)-1H-imidazo[4,5-c]pyridin-1-yl)cyclohexyl)thiazole-2-carboxamide]	100 to 500	> 5000		E
O=C(N[C@H]1CCC[C@@H](n2c(-c3ccccc3F)nc3cnc(-n4ccnn4)cc32)C1)c1ncc(C(F)F)s1 [Example 38, 5-(difluoromethyl)-N-((1S,3R)-3-(2-(2-fluorophenyl)-6-(1H-1,2,3-triazol-1-yl)-1H-imidazo[4,5-c]pyridin-1-yl)cyclohexyl)thiazole-2-carboxamide]	≤ 100	1000 to 5000	100 to 500	
O=C(N[C@H]1CCC[C@@H](n2c(-c3ncccc3F)nc3cnc(-n4nccn4)cc32)C1)c1ncc(Br)s1 [Example 22, 5-bromo-N-((1S,3R)-3-(2-(3-fluoropyridin-2-yl)-6-(2H-1,2,3-triazol-2-yl)-1H-imidazo[4,5-c]pyridin-1-yl)cyclohexyl)thiazole-2-carboxamide]	≤ 100	< 500	≤ 100	
O=C(N[C@H]1CCC[C@@H](n2c(-c3ccccn3)nc3cnc(-n4nccn4)cc32)C1)c1ncc(C(F)F)s1 [Example 21, 5-(difluoromethyl)-N-((1S,3R)-3-(2-(pyridin-2-yl)-6-(2H-1,2,3-triazol-2-yl)-1H-imidazo[4,5-c]pyridin-1-yl)cyclohexyl)thiazole-2-carboxamide]	≤ 100	500 to 1000	100 to 500	
O=C(N[C@H]1CCC[C@@H](n2c(-c3ccccc3F)nc3cnc(-c4noc(=O)[nH]4)cc32)C1)c1ncc(Cl)s1 [Example 202, 5-chloro-N-((1S,3R)-3-(2-(2-fluorophenyl)-6-(5-oxo-4,5-dihydro-1,2,4-oxadiazol-3-yl)-1H-imidazo[4,5-c]pyridin-1-yl)cyclohexyl)thiazole-2-carboxamide]	≤ 100	< 500	≤ 100	
CC(C)Cc1nc2cnc(-n3nccn3)cc2n1[C@@H]1COC[C@H](NC(=O)c2ccc(Cl)s2)C1 (single isomer, unassigned) [Example 141]	≤ 100	< 500	≤ 100	
C=Cc1csc(C(=O)N[C@H]2CCC[C@@H](n3c(-c4ccccc4F)nc4cnc(-c5nc[nH]n5)cc43)C2)n1 [Example 173, N-((1S,3R)-3-(2-(2-fluorophenyl)-6-(1H-1,2,4-triazol-3-yl)-1H-imidazo[4,5-c]pyridin-1-yl)cyclohexyl)-4-vinylthiazole-2-carboxamide]	≤ 100	1000 to 5000	500 to 1000	
O=C(NC1CCCCC(n2c(-c3ccccc3F)nc3cnc(-c4nc[nH]n4)cc32)C1O)c1ncc(Cl)s1 (stereo not drawn) [Example 402, 5-chloro-N-((2-(2-fluorophenyl)-6-(1H-1,2,4-triazol-3-yl)-1H-imidazo[4,5-c]pyridin-1-yl)-2-hydroxycycloheptyl)thiazole-2-carboxamide]	≤ 100	< 500	≤ 100	
Cc1cnn(-c2cc3c(cn2)nc(-c2ccccc2F)n3[C@@H]2CCC[C@H](NC(=O)c3ncc(Cl)s3)[C@H]2O)n1 [Example 246, 5-chloro-N-((1S,2R,3R)-3-(2-(2-fluorophenyl)-6-(4-methyl-2H-1,2,3-triazol-2-yl)-1H-imidazo[4,5-c]pyridin-1-yl)-2-hydroxycyclohexyl)thiazole-2-carboxamide]	≤ 100	< 500	≤ 100	
